Data as given in PMC7401255, “Osirisynes G-I, New Long-Chain Highly Oxygenated Polyacetylenes from the Mayotte Marine Sponge Haliclona sp” (Marine Drugs, 2020).
Where two headings read alike, the source gives them in different places.

Columns and labels:
[1] = molecular target: T1, FynB wt (Homo sapiens, UniProt P06241); assay: FynB kinase inhibition assay (ADP-Glo Kinase Assay); assay type: biochemical
T1 construct: Crelux construct CTX4, PC09815-1
Description: The assay buffer contained 20 mM Tris pH 8.0, 170 mM NaCl, and 10 mM MgCl2.
For the selected hits, 9.5 µL protein dilution (final concentration 200 nM) were mixed with 0.5 µL of compound dilution ranging from 1–0.0005 mg/mL (assay end conc. 33–0.016 μg/mL) and preincubated for 90 min.
Then, 5 µL substrate/ATP mix was added (final concentration substrate 10 µM and ATP 100 µM) and the assay was incubated for another 2 h. Afterwards, 5 µL of the 15 µL assay reaction were transferred to new wells and 5 µL ADP Glo Reagent was added to terminate the kinase reaction and deplete the remaining ATP. After 40 min, 10 µL of Kinase Detection Reagent was added to convert ADP to ATP and allow the newly synthesized ATP to be measured using a luciferase/luciferin reaction. After another 40 min, the assay plates were measured in Luminescence mode on a Tecan M1000 plate reader. The light generated, i.e., luminescent signal, is proportional to the ADP concentration produced and is correlated with kinase activity. The IC50 was calculated using XLfit.

[2] = molecular target: T2, Yeast proteasome (Saccharomyces cerevisiae, UniProt P30656); assay: Proteasome inhibition assay (fluorescence intensity, Suc-Leu-Leu-Val-Tyr-AMC); assay type: biochemical; conditions: 9 nM yeast proteasome, 5 µM substrate, preincubated 90 min, 22 °C
T2 construct: TUM Groll group (academic supplier)
Description: The assay was carried out at room temperature (22 °C) using Corning 4514 black low volume 384-well plates. All measurements were performed in duplicate and the final DMSO concentration was 3.3%. The assay buffer contained 100 mM Tris pH 7.5 and 1 mM MgCl2. (Table 5).
For the positive control, 9.5 µL protein dilution (final concentration 9 nM) were mixed with 0.5 µL of compound dilution ranging from 30–0.015 μM (assay end conc. 1000–0.5 nM). For the selected hits, 9.5 µL protein dilution (final concentration 9 nM) were mixed with 0.5 µL of compound dilution ranging from 1–0.0005 mg/mL (assay end conc. 33–0.016 μg/mL) and preincubated for 90 min. Then, 5 µL substrate mix was added (final concentration 5 µM) and incubated for 60 min. The assay plates were measured in Fluorescence mode on a Tecan M1000 plate reader (ex 380 nm, em 460 nm). The IC50 was calculated using XLfit.
For assay set-up and validation, the tool compound ONX-0914 was utilized. For this tool compound, a dose-dependent decrease in the Fluorescence signal was observed similar to previous results.

[3] = molecular target: T3, CDK7 (Homo sapiens, UniProt P50613); assay: CDK7 inhibition assay (ADP-Glo Kinase Assay); assay type: biochemical; conditions: for IC50: 300 nM CDK7, 30 µM CDKtide, 125 µM ATP, preincubated 120 min, 22 °C
T3 construct: Crelux construct CZY-3, PC09891
T3 sequence (P50613 whole entry, species assumed): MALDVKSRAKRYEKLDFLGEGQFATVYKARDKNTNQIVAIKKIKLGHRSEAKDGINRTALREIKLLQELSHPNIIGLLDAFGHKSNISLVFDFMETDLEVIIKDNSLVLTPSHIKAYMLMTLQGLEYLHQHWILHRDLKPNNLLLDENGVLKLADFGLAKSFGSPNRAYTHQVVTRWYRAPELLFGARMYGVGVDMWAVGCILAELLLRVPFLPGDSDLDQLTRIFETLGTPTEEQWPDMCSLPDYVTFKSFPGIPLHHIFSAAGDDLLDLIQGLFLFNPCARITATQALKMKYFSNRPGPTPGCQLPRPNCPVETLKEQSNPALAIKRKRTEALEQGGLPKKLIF
Description: The assay was carried out at room temperature (22 °C) using Corning white low volume 384-well plates. […]. The assay buffer contained 20 mM Hepes pH 7.0, 150 mM NaCl, and 10 mM MgCl2. (Table 4).
For the positive control, 9.5 µL protein dilution (final concentration 300 nM) were mixed with 0.5 µL of compound dilution ranging from 990–0.006 μM (assay end conc. 33–0.0002 μM). For the selected hits, 9.5 µL protein dilution (final concentration 300 nM) were mixed with 0.5 µL of compound dilution ranging from 1–0.0005 mg/mL (assay end conc. 33–0.016 μg/mL) and preincubated for 120 min.
Then, 5 µL substrate/ATP mix was added (final concentration substrate 30 µM and ATP 125 µM) and the assay was incubated for another 2 h. Afterwards, 5 µL of the 15 µL assay reaction were transferred to new wells and 5 μL ADP Glo Reagent was added to terminate the kinase reaction and deplete the remaining ATP. After 40 min, 10 µL of Kinase Detection Reagent was added to convert ADP to ATP and allow the newly synthesized ATP to be measured using a luciferase/luciferin reaction. After another 40 min, the assay plates were measured in Luminescence mode on a Tecan M1000 plate reader.
The light generated, i.e., luminescent signal, is proportional to the ADP concentration produced and is correlated with kinase activity. The IC50 was calculated using XLfit.

[4] = test system: Na+/K+ ATPase; parameters: method as in doi:10.1016/S0040-4039(00)96493-1; conditions: cited from earlier work
[5] = test system: reverse transcriptase (RT); parameters: method as in doi:10.1016/S0040-4039(00)96493-1; conditions: cited from earlier work
[6] = 200 nM FynB wt, 10 µM Fyn substrate, 100 µM ATP, preincubated 90 min, 22 °C, read-out: IC50 FynB Kinase Inhibition

T1 sequence (P06241 whole entry): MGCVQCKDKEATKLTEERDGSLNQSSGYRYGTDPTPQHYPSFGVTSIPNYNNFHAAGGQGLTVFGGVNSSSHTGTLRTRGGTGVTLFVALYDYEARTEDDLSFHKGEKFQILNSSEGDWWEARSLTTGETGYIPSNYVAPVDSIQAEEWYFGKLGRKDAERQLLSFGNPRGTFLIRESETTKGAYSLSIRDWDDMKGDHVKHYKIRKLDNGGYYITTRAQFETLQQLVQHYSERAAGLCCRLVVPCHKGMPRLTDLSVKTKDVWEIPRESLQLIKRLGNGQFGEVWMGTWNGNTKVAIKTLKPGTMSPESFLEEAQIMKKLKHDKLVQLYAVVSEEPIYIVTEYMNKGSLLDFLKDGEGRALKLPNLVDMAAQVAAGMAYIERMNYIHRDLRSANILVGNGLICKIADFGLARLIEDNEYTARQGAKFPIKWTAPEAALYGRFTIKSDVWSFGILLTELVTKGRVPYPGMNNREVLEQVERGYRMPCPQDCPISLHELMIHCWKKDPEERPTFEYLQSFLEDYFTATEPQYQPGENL

SMILES | IC50 [1] [µM] | IC50 [1, 6] [µM] | IC50 [2] [µM] | Fyn kinase inhibition (in words) [1] | CDK7 inhibition (in words) [3] | IC50 [3] [µM] | Na+/K+ ATPase inhibitory activity (in words) [4] | reverse transcriptase (RT) inhibitory activity (in words) [5]
C#CC(O)/C=C/C(O)CCCC(O)CC#CC(O)C#CCCCCC(O)/C=C/CCCCCC(=O)CCCCCCCCCCCCC(O)C(O)C(O)C#CC(=O)O (stereo not shown) [Osirisyne H (2), osirisyne H] | > 41 |  |  |  |  |  |  | 
C#CC(O)/C=C/C(O)CCCC(O)CC#CC(O)C#CC(O)CCCC(O)/C=C/CCCCCC(=O)CCCCCCCCCCCCC(O)C(O)C(O)C#CC(=O)O (stereo not shown) [Osirisyne G (1), osirisyne G] |  | > 40.2 | > 40.2 |  |  |  |  | 
C#CC(O)/C=C/C(O)CCCC(O)CC#CC(O)C#CC(O)CCCC(O)/C=C/CCCCCC(=O)CCCCCCCCCCCCCC(O)C(O)C#CC(=O)O (stereo not shown) [Osirisyne A (4), osirisyne A] |  | > 41 | > 41 |  |  |  |  | 
C#CC(O)/C=C/C(O)CCCC(O)CC#CC(O)C#CCCCCC(O)/C=C/CCCCCC(=O)CCCCCCCCCCCCCC(O)C(O)C#CC(=O)O (stereo not shown) [Osirisyne B (5), osirisyne B] |  | 18.4 | 0.26 | inhibited | inhibited | 9.13 |  | 
C#CC(O)/C=C/C(O)CCCC(O)CC#CC(O)C#CCCCCC(O)/C=C/CCCC(O)/C=C/CCCCCCCCCCCCCC(O)C(O)C#CC(=O)O (stereo not shown) [Osirisyne E (6), osirisyne E] |  | > 41.8 | > 41.8 | inhibited | inhibited | > 41.8 | inhibitory activities | inhibitory activities
C#CC(O)/C=C/C(O)CCCC(O)CC#CC(O)C#CC(O)CCCC(O)/C=C/CCCC(O)/C=C/CCCCCCCCCCCCCC(O)C(O)C#CC(=O)O (stereo not shown) [Osirisyne I (3), osirisyne I] |  | > 41 | > 41 |  |  |  |  | 
